What was measured:
Assay in all cases: selective drug sensitivity score (sDSS, relative to normal bone marrow) (sDSS (score)); higher = more potent and effective on the cell line relative to normal bone marrow cells
Settings in all cases: 72 h
[1] = tested on: MHH-CALL-2
[2] = tested on: RPMI-8402
[3] = tested on: NALM-6
[4] = tested on: MN-60
[5] = tested on: MHH-CALL-4
[6] = tested on: KASUMI-9
[7] = tested on: PEER
[8] = tested on: REH
[9] = tested on: KARPAS-45
[10] = tested on: 380
[11] = tested on: PF-382
[12] = tested on: MHH-CALL-3
[13] = tested on: NALM-16
[14] = tested on: JURKAT
[15] = tested on: KASUMI-10
[16] = tested on: COG-LL-319h
[17] = tested on: TMD5
[18] = tested on: COG-LL-355h
[19] = tested on: ALL-SIL
[20] = tested on: NALL-1
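Further: ALL cell lines in 384-well plates, five doses spanning 10,000-fold, each plate scaled between vehicle and 100 µmol/L benzalkonium chloride controls, sDSS an adapted area-under-curve metric.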

Row | SMILES | selective drug sensitivity score [1] | selective drug sensitivity score [2] | selective drug sensitivity score [3] | selective drug sensitivity score [4] | selective drug sensitivity score [5] | selective drug sensitivity score [6] | selective drug sensitivity score [7] | selective drug sensitivity score [8] | selective drug sensitivity score [9] | selective drug sensitivity score [10] | selective drug sensitivity score [11] | selective drug sensitivity score [12] | selective drug sensitivity score [13] | selective drug sensitivity score [14] | selective drug sensitivity score [15] | selective drug sensitivity score [16] | selective drug sensitivity score [17] | selective drug sensitivity score [18] | selective drug sensitivity score [19] | selective drug sensitivity score [20]
1 | N#Cc1ccnc(N2C(=O)CC[C@H]2C(=O)N(c2cncc(F)c2)[C@H](C(=O)NC2CC(F)(F)C2)c2ccccc2Cl)c1 [Ivosidenib] (top concentration 10000 nM) | 11.9 | 0.8 | 0 | 0 | 0 | 0.9 | 0.6 | 0.6 | 0.5 | 3 | 0.8 | 0 | 0 | 0.7 | 0 | 0 | 1.8 | 0 | 2 | 0
2 | C/C(=C\c1csc(C)n1)[C@@H]1C[C@@H]2O[C@]2(C)CCC[C@H](C)[C@H](O)[C@@H](C)C(=O)C(C)(C)[C@@H](O)CC(=O)N1 [Ixabepilone] (top concentration 1000 nM) | 1.88 | 2.78 | 4.48 | 1.48 | 0.58 | 2.58 | 3.28 | 3.78 | 3.68 | 2.08 | 1.68 | -0.42 | 2.88 | 3.28 | 1.58 | 3.68 | 0.28 | 2.48 | 2.98 | 1.68
3 | Nc1cc(COc2c(Cl)cc(C[C@H](N)C(=O)O)cc2Cl)c2oc(-c3ccccc3)nc2c1 [JPH203] (top concentration 5000 nM) | 0 | 0.5 | 0 | 0 | 1.2 | 2.2 | 0 | 0.2 | 0 | 1.2 | 0 | 0 | 0 | 0 | 0.2 | 0 | 2.1 | 1.5 | 0 | 0
4 | CS(=O)(=O)CCNCc1ccc(-c2ccc3ncnc(Nc4ccc(OCc5cccc(F)c5)c(Cl)c4)c3c2)o1 [Lapatinib] (top concentration 1000 nM) | 12.1 | 0 | 0 | 0 | 0 | 0.2 | 0 | 0 | 0 | 0 | 0 | 0 | 0 | 0 | 0 | 0 | 0 | 0 | 0 | 0
5 | Oc1ccc2c(c1)CC[C@H](c1ccccc1)[C@@H]2c1ccc(OCCN2CCCC2)cc1 [Lasofoxifene] (top concentration 1000 nM) | -1.28 | -1.28 | -1.28 | -1.28 | -1.28 | -1.28 | -1.28 | -1.28 | -1.28 | -1.28 | -0.98 | -1.28 | -1.28 | -1.28 | -1.28 | 2.62 | -1.28 | -1.28 | -1.28 | -1.28
6 | Cc1ccc(F)c(NC(=O)Nc2ccc(-c3cccc4[nH]nc(N)c34)cc2)c1 [Linifanib] (top concentration 1000 nM) | -1.12 | -1.12 | -1.12 | -1.12 | -1.12 | -1.12 | -1.12 | -1.12 | -1.12 | -1.12 | -1.12 | -1.12 | -1.12 | -1.12 | 6.08 | -1.12 | -1.12 | -1.12 | -1.12 | -1.12
7 | Cc1c(F)cc(C(=O)NC2CC2)cc1-c1ccc(C(=O)NCC(C)(C)C)cn1 [Losmapimod] (top concentration 10000 nM) | -0.18 | -0.18 | 0.82 | -0.18 | -0.18 | 6.92 | -0.08 | -0.18 | -0.18 | -0.18 | 0.02 | -0.18 | -0.18 | -0.18 | -0.18 | -0.18 | -0.18 | 1.92 | -0.18 | -0.18
8 | CNC(=O)c1cccc2cc(Oc3ccnc4cc(OCC5(N)CC5)c(OC)cc34)ccc12 [Lucitanib] (top concentration 10000 nM) | 4.18 | 1.88 | 1.58 | -0.62 | -0.62 | 6.28 | 3.08 | 6.88 | 3.18 | 1.18 | 1.38 | -0.62 | -0.62 | 2.78 | 5.18 | 1.98 | 0.98 | -0.62 | 4.88 | 0.58
9 | O=C1c2c(O)ccc(O)c2C(=O)c2c(NCCNCCO)ccc(NCCNCCO)c21 [Mitoxantrone] (top concentration 1000 nM) | 7.34 | 6.34 | 2.44 | -3.86 | 11.1 | 11.8 | -6.26 | 12.6 | -1.66 | 16.3 | -1.86 | 14.4 | -5.06 | -3.86 | 12.7 | 16.3 | 4.54 | 7.94 | 7.44 | -5.06

Source: the supplement of paper PMC8967900
